Source: patent US12404232B2, “Compounds and compositions for intracellular delivery of therapeutic agents” (ModernaTX, Inc., priority 2015, dated 2025)

Tested on: mice
Experiment: Luc expression (bioluminescence, total flux) after intravenous administration to mice
Type: in vivo
In short: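 Lipid nanoparticle formulations carrying Luc mRNA were given intravenously to mice (n=6) at 0.5 mg/kg. Bioluminescence was imaged at 3, 6 and 24 h. Total flux was expressed as AUC relative to the standard MC3 formulation.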

Structure (SMILES): CCCCCC=CCC=CCCCCCCCCC(CCCCCCCCC=CCC=CCCCCC)OC(=O)CCCN(C)C (stereo not drawn) [MC3, heptatriaconta-6,9,28,31-tetraen-19-yl 4-(dimethylamino)butanoate, reference compound]
- AUC (p/s*h) (Luc total flux (Table 3D)): 1.909E+011 p/s*h
- 6 h Lipid/MC3 G.M. Luc Expression (i.v. administration, 6 h, geometric mean): 1
- AUC (h*p/s) (i.v. administration, total Luc flux (Table 3C)): 8.24E+10 h*p/s
